Source: ChEMBL document CHEMBL1127032, “(Dipropylphenoxy)phenylacetic acids: a new generation of nonpeptide angiotensin II receptor antagonists” (J Med Chem, 1993)

Key:
[1] = biological target: T1, Type-1 angiotensin II receptor (Oryctolagus cuniculus, UniProt P34976); assay: Displacement of […][Sar1,IIe8]AII from rabbit aorta Angiotensin II receptor, type 1; type: tissue-based
T1 sequence (P34976 whole entry): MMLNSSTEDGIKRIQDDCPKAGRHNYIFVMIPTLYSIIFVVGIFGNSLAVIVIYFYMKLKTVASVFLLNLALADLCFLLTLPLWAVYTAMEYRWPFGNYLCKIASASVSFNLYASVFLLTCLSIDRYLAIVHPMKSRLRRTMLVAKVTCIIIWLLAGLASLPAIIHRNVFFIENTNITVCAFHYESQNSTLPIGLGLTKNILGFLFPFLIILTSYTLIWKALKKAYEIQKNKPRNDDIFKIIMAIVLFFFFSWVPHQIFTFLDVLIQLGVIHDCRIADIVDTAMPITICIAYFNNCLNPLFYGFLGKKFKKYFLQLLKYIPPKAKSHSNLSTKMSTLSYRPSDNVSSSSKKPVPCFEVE

[2] = biological target: T2, Type-2 angiotensin II receptor (Rattus norvegicus, UniProt P35351); assay: Displacement of […][Sar1,IIe8]AII from rat midbrain angiotensin II (AT2) receptor
T2 sequence (P35351 whole entry): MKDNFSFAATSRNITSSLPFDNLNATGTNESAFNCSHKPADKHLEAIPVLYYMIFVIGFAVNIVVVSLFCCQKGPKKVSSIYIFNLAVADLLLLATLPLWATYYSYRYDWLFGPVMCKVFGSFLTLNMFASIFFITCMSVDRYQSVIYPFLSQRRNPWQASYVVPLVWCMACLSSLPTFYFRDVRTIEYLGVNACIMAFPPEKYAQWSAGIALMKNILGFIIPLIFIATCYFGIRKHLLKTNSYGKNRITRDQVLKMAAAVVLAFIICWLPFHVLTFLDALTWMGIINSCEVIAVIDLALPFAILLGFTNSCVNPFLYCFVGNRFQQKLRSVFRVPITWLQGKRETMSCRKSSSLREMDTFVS

| Compound | IC50 [1] | IC50 [2] |
| --- | --- | --- |
| CCCc1cc(Cn2c(CC)nc3c(C)cc(C)nc32)cc(CCC)c1OC(C(=O)O)c1ccccc1Cl (stereo not drawn) | 0.53 nM | 3500 nM |
| CCCc1cc(Cn2c(CC)nc3c(C)cc(C)nc32)cc(CCC)c1OC(C(=O)O)c1cccc(Oc2ccccc2)c1 (stereo not drawn) | 0.47 nM | 1600 nM |
| CCCc1cc(Cn2c(CC)nc3c(C)cc(C)nc32)cc(CCC)c1OC(C(=O)O)c1ccc(Cl)cc1 (stereo not drawn) | 2.8 nM | 450 nM |
| CCCc1cc(Cn2c(CC)nc3c(C)cc(C)nc32)cc(CCC)c1OC(C(=O)O)c1ccc(Oc2ccccc2)cc1 (stereo not drawn) | 5.2 nM | 1900 nM |
| CCCc1cc(Cn2c(CC)nc3c(C)cc(C)nc32)cc(CCC)c1OC(C(=O)O)c1cccc(Cl)c1 (stereo not drawn) | 0.75 nM | 2300 nM |
| CCCc1cc(Cn2c(CC)nc3c(C)cc(C)nc32)cc(CCC)c1OC(C(=O)O)c1ccc(C)cc1 (stereo not drawn) | 4 nM | 400 nM |
| CCCc1cc(Cn2c(CC)nc3c(C)cc(C)nc32)cc(CCC)c1OC(C(=O)O)c1ccccc1 (stereo not drawn) | 0.9 nM | 2600 nM |
| CCCc1cc(Cn2c(CC)nc3c(C)cc(C)nc32)cc(CCC)c1OC(C(=O)O)c1cccc(C)c1 (stereo not drawn) | 0.74 nM | 800 nM |
| CCCc1cc(Cn2c(CC)nc3c(C)cc(C)nc32)cc(CCC)c1OC(C(=O)O)c1ccccc1C (stereo not drawn) | 1.2 nM | 7500 nM |
| CCCc1cc(Cn2c(CC)nc3c(C)cc(C)nc32)cc(CCC)c1OC(C(=O)O)c1cccc(-c2ccccc2)c1 (stereo not drawn) | 6.8 nM | 740 nM |
| CCc1nc2c(C)cc(C)nc2n1Cc1ccc(-c2ccccc2-c2nnn[nH]2)cc1 [L-158809] | – | > 10000 nM |
| CCCc1cc(Cn2c(CC)nc3c(C)cc(C)nc32)cc(CCC)c1OC(C(=O)O)c1ccc(CC)cc1 (stereo not drawn) | 19 nM | 240 nM |
